According to patent publication US8389538B2, “Rexinoid compound having alkoxy group” (National University Corporation Okayama University, priority 2007, dated 2013):
Read-outs that look alike come from different tables or passages of the source. Blank lines part the entries; values can stand above or below the compound they belong to.

Columns and labels:
[1] = target: T1, RXRα (Homo sapiens, UniProt P19793); assay: RXR reporter gene assay (luciferase) in COS-1 cells, RXRα; type: cell-based; conditions: for Emax: COS-1; for EC50 / RXRα Emax (%): COS-1 cells; for EC50: half of maximum transcriptional activation potential; for RXRα Emax (%): relative to PA024 (1 μM) = 100%
T1 construct: expressed in transfected cells; host or cells: COS-1 cells
T1 sequence (P19793 1-462): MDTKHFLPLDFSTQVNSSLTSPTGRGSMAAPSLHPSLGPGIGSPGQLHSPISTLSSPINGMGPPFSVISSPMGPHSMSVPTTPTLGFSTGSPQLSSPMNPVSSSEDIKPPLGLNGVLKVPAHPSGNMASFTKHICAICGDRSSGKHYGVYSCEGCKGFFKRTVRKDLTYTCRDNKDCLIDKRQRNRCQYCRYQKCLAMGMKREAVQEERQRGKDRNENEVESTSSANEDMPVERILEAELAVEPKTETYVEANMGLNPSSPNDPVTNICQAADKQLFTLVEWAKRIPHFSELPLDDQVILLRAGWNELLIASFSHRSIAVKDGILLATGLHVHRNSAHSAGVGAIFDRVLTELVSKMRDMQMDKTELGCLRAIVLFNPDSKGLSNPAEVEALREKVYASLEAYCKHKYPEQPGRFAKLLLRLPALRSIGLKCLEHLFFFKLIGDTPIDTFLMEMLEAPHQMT
Procedure: (§1) Most of nuclear receptors are transcription factors associated with regulating transcription, so that reporter gene assay is conducted as a means of measuring its transcription activity. An expression plasmid for RXR receptor protein and a reporter plasmid were introduced into cells such as COS-1 cells and HeLa cells to cause overexpression. And, when RXR agonist is bound to the receptor, transcription is induced in a ligand dependent manner, and a protein which is referred to as fusion protein downstream is produced. The binding of this fusion protein to the binding site on the reporter plasmid initiates the transcription to produce luciferase downstream. RXR agonistic activity was measured by measuring this luciferase activity.
(§2) Dulbecco's Modified Eagle MEM medium (DMEM) was used as growth medium.
(§3) Passage was conducted by removing culture supernatant from the cell culture grown in a 100 mm culture dish, collecting cells by trypsinization, centrifuging at 1000 rpm at 4° C. for 3 minutes, then dispersing cells by adding growth medium and growing them in a 100 mm culture dish (15 mL of growth medium) at 37° C. in the presence of 5% CO2.
(§4) Transformation was conducted using Effectene™ Transfection Reagent (QIAGEN). Further, Luciferase Assay System was used for evaluating luciferase activity. Am80 was used for the positive control of RAR, and 9-cis retinoic acid was used for the positive control of RXR. They were dissolved in DMSO for use as a stock solution and measured on every plate to be assayed.
(§5) • On day 1: COS-1 cells were seeded along with 15 mL of growth medium in a 60 mm culture dish at 50×10^4 cells and were cultured over night. • On day 2: Transformation was conducted by lipofection using Effectene™ Transfection Reagent. • On day 3: 16 to 18 hours later, the culture supernatant was removed, cells were collected by trypsinization, centrifugation was conducted at 1000 rpm at 4° C. for 3 minutes, then cells were dispersed by adding growth medium, and then the cells were seeded on a 96-well white plate at 2.0×10^4 cells/well. Then, each compound was added at DMSO concentration of 1% or below. • On day 4: 24 hours later, 25 μL of the supernatant was used for SEAP measurement, and the rest cell-containing solution was used for measuring luciferase activity.
(§6) In Table 5, a) EC50 indicated a concentration giving the half of the maximum transcriptional activation potential.

[2] = tested on: Human leukemia cell strain HL-60; assay: HL-60 differentiation induction (NBT reduction method); type: cell-based; conditions: for Retinoid synergistic activity BA(%) / Retinoid activity BA(%): maximum differentiation inducing rate relative to total cell number
Procedure: Human leukemia cell strain HL-60 differentiates into granulocytes (neutrophils) to come to have an ability to express active oxygen. […] A method for measuring differentiation inducibility of cells into granulocytes by using this principle is referred to as NBT reduction method. So, the differentiation inducibility of the synthesized compound was measured by NBT reduction method. […] Each compound was dissolved in dimethylsulfoxide (DMSO) into 20 mM to prepare a stock solution. NBT was prepared into 0.2 w/v % by using PBS (−) 2 hours before use and incubated at 37° C. TPA was dissolved in ethanol (EtOH) into 2 mg/mL to prepare a stock solution. This TPA solution was prepared into 20 μg/mL by using PBS (−) at the time of use. […] The action of RXR agonist is enhanced by the combined use of that and RAR agonist. […] After four days cultivation, cells were collected by centrifugation (4° C., 1500 rpm, 5 minutes). After these cells were seeded onto 1 mL of a fresh growth medium, then 1 mL of 0.2 w/v % NBT solution and 20 μl of 20 μg/ml of TPA solution were added, and incubation was carried out in the incubator containing 5% CO2 at 37° C. for 30 minutes. Then, stained cell number and total cell number were counted on a cell counter. Meanwhile, the measurement was conducted three times by counting 200 cells or more at a time and a differentiation inducing rate was calculated from a mean value obtained by averaging them. […] Meanwhile, “inert” means that differentiation inducibility can not be observed even at 10 μM. Likewise, b) BA (bioactivity) (%) refers to the maximum differentiation inducing rate relative to the total cell number in this test.

[3] = target: T2, RXRγ (Homo sapiens, UniProt P48443); assay: RXR reporter gene assay (luciferase) in COS-1 cells, RXRγ; type: cell-based; conditions: for Emax: COS-1; for EC50 / RXRγ Emax (%): COS-1 cells; for EC50: half of maximum transcriptional activation potential; for RXRγ Emax (%): relative to PA024 (1 μM) = 100%
T2 construct: expressed in transfected cells; host or cells: COS-1 cells
T2 sequence (P48443 1-463): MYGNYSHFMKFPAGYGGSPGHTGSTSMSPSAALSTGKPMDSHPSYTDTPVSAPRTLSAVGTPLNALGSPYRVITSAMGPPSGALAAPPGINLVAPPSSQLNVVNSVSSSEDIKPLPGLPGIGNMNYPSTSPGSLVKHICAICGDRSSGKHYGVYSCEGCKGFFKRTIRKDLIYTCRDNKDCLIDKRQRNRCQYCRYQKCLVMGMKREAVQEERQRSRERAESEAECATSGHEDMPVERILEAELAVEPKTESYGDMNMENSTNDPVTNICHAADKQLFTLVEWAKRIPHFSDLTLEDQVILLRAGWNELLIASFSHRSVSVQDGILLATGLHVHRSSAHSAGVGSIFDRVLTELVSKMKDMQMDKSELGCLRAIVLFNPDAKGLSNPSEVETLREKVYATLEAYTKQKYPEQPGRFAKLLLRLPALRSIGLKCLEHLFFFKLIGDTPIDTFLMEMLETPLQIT
Procedure: as §1, §2, §3, §4, §5, §6

[4] = tested on: edema induced by carrageenin; assay: Carrageenin edema test; type: in vivo; conditions: rats, 10 mg/kg oral, 3 hours before carrageenin; 3 hours after the administration of carrageenin; hind foot pads
Procedure: Carrageenin edema test was used for anti-inflammatory test by using rats. 10 mg/kg compound 1a (NEt-3IP) was orally administered to five rats in a group, and then 3 hours later, 1% carrageenin solution, which was an edema-inducing substance, was subcutaneously administered to the hind foot pads (0.1 mL/rat). Then, 1, 2, 3 and 4 hours after that, the thickness of edema of the hind foot pads was measured. […] The rate of inhibiting edema was 27% 3 hours after the administration of carrageenin.

[5] = target: T3, RXRβ (Homo sapiens, UniProt P28702); assay: RXR reporter gene assay (luciferase) in COS-1 cells, RXRβ; type: cell-based; conditions: for Emax: COS-1; for EC50 / RXRβ Emax (%): COS-1 cells; for EC50: half of maximum transcriptional activation potential; for RXRβ Emax (%): relative to PA024 (1 μM) = 100%
T3 construct: expressed in transfected cells; host or cells: COS-1 cells
T3 sequence (P28702 1-533): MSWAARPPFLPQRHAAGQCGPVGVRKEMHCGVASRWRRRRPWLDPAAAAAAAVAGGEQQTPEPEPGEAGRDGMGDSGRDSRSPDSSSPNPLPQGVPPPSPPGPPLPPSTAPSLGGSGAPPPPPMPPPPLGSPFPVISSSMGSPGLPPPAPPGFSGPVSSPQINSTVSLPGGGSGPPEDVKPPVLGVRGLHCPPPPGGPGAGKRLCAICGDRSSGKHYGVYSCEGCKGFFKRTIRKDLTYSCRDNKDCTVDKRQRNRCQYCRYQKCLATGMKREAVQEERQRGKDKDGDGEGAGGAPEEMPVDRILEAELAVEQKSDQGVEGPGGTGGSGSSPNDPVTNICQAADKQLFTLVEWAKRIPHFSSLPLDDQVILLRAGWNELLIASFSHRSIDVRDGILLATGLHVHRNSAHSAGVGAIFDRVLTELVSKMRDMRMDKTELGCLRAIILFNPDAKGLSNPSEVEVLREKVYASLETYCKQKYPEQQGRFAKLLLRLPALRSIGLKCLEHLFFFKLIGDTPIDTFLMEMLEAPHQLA
Procedure: as §1, §2, §3, §4, §5, §6

[6] = tested on: Histone Deacetylase (HDAC); assay: HDAC Activity/Inhibitor Screening Assay Kit (Cayman); type: biochemical; conditions: at 100 μM
Procedure: Activity Evaluation Method 3: Histone Deacetylase (HDAC) Inhibitory Activity
HDAC inhibitory activity was evaluated for compounds represented by formulae XVII and XVIII, through the use of HDAC Activity/Inhibitor Screening Assay Kit supplied by Cayman and according to that protocol.

[7] = Am80 present at 3.3×10^−10 M, half of maximum differentiation inducing rate, read-out: Retinoid synergistic activity SEC50
[8] = Homo sapiens, HL-60, 96 h, test compound alone, concentration giving half of maximum differentiation inducing rate, four days culture, read-out: Retinoid activity EC50
[9] = test compound alone, concentration giving half of maximum differentiation inducing rate, four days culture, read-out: Retinoid activity EC50

SMILES: CC(C)Oc1cc(Nc2ccc(C(=O)O)cn2)ccc1C(C)C [Compound 1c]
EC50 [2, 7]: 4500 nM | Retinoid synergistic activity BA(%) ([2]; Am80 present at 3.3×10^−10 M): 63% | EC50 [2, 9]: > 10000 nM | Retinoid activity BA(%) ([2]; test compound alone): 24%

SMILES: CCCOc1cc(Nc2ccc(C(=O)O)cn2)ccc1C(C)C [Compound 2c]
EC50 [2, 7]: 4300 nM | Retinoid synergistic activity BA(%) ([2]; Am80 present at 3.3×10^−10 M): 60% | EC50 [2, 9]: > 10000 nM | Retinoid activity BA(%) ([2]; test compound alone): 50%

SMILES: CC(C)Oc1ccc(Nc2ccc(C(=O)O)cn2)cc1C(C)C [Compound 4c]
EC50 [2, 7]: > 10000 nM | Retinoid synergistic activity BA(%) ([2]; Am80 present at 3.3×10^−10 M): 29% | EC50 [2, 9]: > 10000 nM | Retinoid activity BA(%) ([2]; test compound alone): 24%

SMILES: CCCOc1ccc(Nc2ccc(C(=O)O)cn2)cc1C(C)C [Compound 5c]
EC50 [2, 7]: > 10000 nM | Retinoid synergistic activity BA(%) ([2]; Am80 present at 3.3×10^−10 M): 15% | EC50 [2, 9]: > 10000 nM | Retinoid activity BA(%) ([2]; test compound alone): 3%

SMILES: CCN(c1ccc(C(C)C)c(OCC(C)C)c1)c1ncc(C(=O)O)cn1 [Compound 7a]
EC50 [1]: 2.9 nM | RXRα Emax (%) [1]: 110% | EC50 [3]: 4.9 nM | RXRγ Emax (%) [3]: 105% | EC50 [5]: 7.3 nM | RXRβ Emax (%) [5]: 140%

SMILES: CCN(c1ccc(C(C)C)c(OC(C)C)c1)c1ccc(/C=C/C(=O)O)cn1 [XVII]
HDAC activity inhibition rate [6]: 78%

Continued by falling EC50 [2, 7], values first:

EC50 [2, 7]: 900 nM | EC50 [2, 9]: > 10000 nM
SMILES: CC(C)Oc1cc(N(c2ccc(C(=O)O)cn2)S(C)(=O)=O)ccc1C(C)C [Compound 1b]
Retinoid synergistic activity BA(%) ([2]; Am80 present at 3.3×10^−10 M): 63% | Retinoid activity BA(%) ([2]; test compound alone): 44%

EC50 [2, 7]: 800 nM | EC50 [2, 9]: > 10000 nM
SMILES: CCCOc1cc(N(c2ccc(C(=O)O)cn2)S(C)(=O)=O)ccc1C(C)C [Compound 2b]
Retinoid synergistic activity BA(%) ([2]; Am80 present at 3.3×10^−10 M): 63% | Retinoid activity BA(%) ([2]; test compound alone): 50%

EC50 [2, 7]: 23 nM | EC50 [2, 9]: > 10000 nM
SMILES: CCCOc1cc(N(CC)c2ccc(C(=O)O)cn2)ccc1C(C)C [Compound 2a]
Retinoid synergistic activity BA(%) ([2]; Am80 present at 3.3×10^−10 M): 74% | Retinoid activity BA(%) ([2]; test compound alone): 4%

EC50 [1]: > 660 nM | RXRα Emax (%) [1]: >110% | EC50 [2, 7]: 23 nM | EC50 [2, 9]: > 10000 nM | EC50 [3]: > 350 nM | RXRγ Emax (%) [3]: >81% | EC50 [5]: > 1300 nM | RXRβ Emax (%) [5]: >80%
SMILES: CCN(c1ccc(OC(C)C)c(C(C)C)c1)c1ccc(C(=O)O)cn1 [Compound 4a]
Retinoid synergistic activity BA(%) ([2]; Am80 present at 3.3×10^−10 M): 64%

Emax [1]: 110% | EC50 [1]: 6 nM | EC50 [2, 7]: 12 nM | EC50 [2, 8]: > 10000 nM | Emax [3]: 105% | EC50 [3]: > 58 nM | Emax [5]: 100% | EC50 [5]: 18 nM
SMILES: CCN(c1ccc(C(C)C)c(OC(C)C)c1)c1ncc(C(=O)O)cn1 [Compound 6a]
Retinoid synergistic activity BA(%) ([2]; Am80 present at 3.3×10^−10 M): 87% | Retinoid activity BA(%) ([2]; test compound alone): 3%

Emax [1]: 130% | EC50 [1]: 27 nM | selectivity for RXRα/β over RXRγ ([1]; reporter gene assay, RXRα/β versus RXRγ): ≥ 10 times | EC50 [2, 7]: 10 nM | EC50 [2, 8]: > 10000 nM | Emax [3]: > 88% | EC50 [3]: > 380 nM | Emax [5]: 110% | EC50 [5]: 35 nM
SMILES: CCN(c1ccc(C(C)C)c(OC(C)C)c1)c1ccc(C(=O)O)cn1 [Compound 1a]
Retinoid synergistic activity BA(%) ([2]; Am80 present at 3.3×10^−10 M): 80% | Retinoid activity BA(%) ([2]; test compound alone): 4% | rate of inhibiting edema [4]: 27%
